Test results: patent US11339150B2, “Benzimidazole compounds as HDAC6 inhibitors” (OnKure, Inc., priority 2019, dated 2022)

Assays:
[1] = test system: Tubulin deacetylation in U266B1 human myeloma cell line; experiment: Tubulin deacetylation inhibition in U266B1 cells; format: cell-based; conditions: Cell Type U266B1
Description: Tubulin Deacetylation Inhibition
Example 1 was dissolved with DMSO at 10 mM stock. Reference compound TSA was dissolved with DMSO at 10 mM stock. U266B1 human myeloma cell line was purchased from American Type Culture Collection (Manassas, Va.). U266B1 cells were grown in RPMI medium and supplemented with 15% heat-inactivated fetal bovine serum (FBS), 100 μg/ml penicillin, and 100 μg/ml streptomycin. Cultures were maintained at 37° C. in a humidified atmosphere of 5% CO2 and 95% air. 12% Bis-Tris gel and nitrocellulose membrane were purchased from Thermo Fisher. Anti-acetylated-Tubulin antibody (Catalogue #T7451) was purchased from Sigma-Aldrich. Anti-α-Tubulin antibody (Catalogue #sc-12462-R) antibody was purchased from Santa Cruz Biotechnology. Anti-Acetylated Histone H3 (K9) (Catalogue #9649) and anti-Histone H3 (Catalogue #3638) antibodies were purchased from Cell Signaling Technology. Anti-rabbit IgG IRDye 680RD or anti-mouse IgG IRDye 800CW secondary antibodies were purchased from LI-COR.

HDAC3 = HDAC3 (Homo sapiens, UniProt O15379); experiment: HDAC assay (fluorogenic substrate), HDAC3; format: biochemical; conditions: isoform selectivity table
Description: (§1) Base Reaction buffer: 50 mM Tris-HCl, pH8.0, 137 mM NaCl, 2.7 mM KCl, and 1 mM MgCl2. Add fresh: 1 mg/ml BSA, 1% DMSO
(§2) Fluorogenic HDAC General Substrate: 50 μM, Arg-His-Lys-Lys(Ac)
(§3) • 1. Deliver 2× enzyme in wells of reaction plate except No Enzyme control wells. Add buffer in No En wells. • 2. Deliver compounds in 100% DMSO into the enzyme mixture by Acoustic technology (Echo550; nanoliter range). Spin down and pre-incubation. • 3. Deliver 2× Substrate Mixture (Fluorogenic HDAC Substrate and co-factor if applicable) in all reaction wells to initiate the reaction. Spin and shake. • 4. Incubate for 30 min for Class 2A, 1 hr for HDAC1, 2, 3, and 6, and 2 hr for the rest of HDACs and SIRTs at 30° C. with seal. Development Step: • 5. Add Developer with Trichostatin A (or Nicotinamide for SIRTs) to stop the reaction and to generate fluorescent color. • 6. Kinetic measurement for 1.5 hr with Envision with 15 min interval. (Ex/Em=360/460 nm) • 7. Take endpoint reading for analysis after the development reaches plateau.

HDAC6 = target: T1, HDAC6 (Homo sapiens, UniProt Q9UBN7); experiment: HDAC assay (fluorogenic substrate), HDAC6; format: biochemical
T1 sequence (Q9UBN7 1-1215): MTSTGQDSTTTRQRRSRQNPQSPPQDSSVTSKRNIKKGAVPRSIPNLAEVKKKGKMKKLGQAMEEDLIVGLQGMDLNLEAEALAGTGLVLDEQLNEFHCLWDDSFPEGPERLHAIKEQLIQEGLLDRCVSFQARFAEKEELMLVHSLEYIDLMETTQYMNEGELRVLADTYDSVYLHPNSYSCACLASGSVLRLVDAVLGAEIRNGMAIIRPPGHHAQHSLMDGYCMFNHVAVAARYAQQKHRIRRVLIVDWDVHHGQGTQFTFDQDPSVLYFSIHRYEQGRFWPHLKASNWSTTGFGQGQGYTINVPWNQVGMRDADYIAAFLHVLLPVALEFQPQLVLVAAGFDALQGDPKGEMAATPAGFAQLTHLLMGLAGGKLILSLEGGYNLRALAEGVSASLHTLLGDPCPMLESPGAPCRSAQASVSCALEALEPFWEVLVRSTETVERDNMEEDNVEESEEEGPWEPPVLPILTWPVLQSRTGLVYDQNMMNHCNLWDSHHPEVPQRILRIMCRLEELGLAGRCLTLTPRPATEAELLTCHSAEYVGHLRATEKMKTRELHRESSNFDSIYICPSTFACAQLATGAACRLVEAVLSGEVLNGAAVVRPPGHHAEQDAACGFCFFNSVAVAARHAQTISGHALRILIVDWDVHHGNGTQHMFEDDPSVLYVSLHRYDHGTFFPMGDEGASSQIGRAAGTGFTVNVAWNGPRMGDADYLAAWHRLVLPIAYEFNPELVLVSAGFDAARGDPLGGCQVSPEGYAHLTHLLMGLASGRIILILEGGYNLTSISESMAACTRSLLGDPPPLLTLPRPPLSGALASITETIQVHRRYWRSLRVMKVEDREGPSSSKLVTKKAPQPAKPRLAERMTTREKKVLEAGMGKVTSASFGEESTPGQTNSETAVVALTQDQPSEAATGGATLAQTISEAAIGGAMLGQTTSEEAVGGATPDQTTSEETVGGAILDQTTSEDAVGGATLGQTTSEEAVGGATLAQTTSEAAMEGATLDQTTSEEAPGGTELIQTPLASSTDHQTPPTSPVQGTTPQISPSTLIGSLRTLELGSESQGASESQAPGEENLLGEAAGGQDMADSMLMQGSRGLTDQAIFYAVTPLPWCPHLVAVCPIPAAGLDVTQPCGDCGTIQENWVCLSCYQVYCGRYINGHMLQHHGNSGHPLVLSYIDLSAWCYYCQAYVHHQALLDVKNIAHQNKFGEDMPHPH
Description: as §1, §2, §3

HDAC2 = HDAC2 (Homo sapiens, UniProt Q92769); experiment: HDAC assay (fluorogenic substrate), HDAC2; format: biochemical; conditions: isoform selectivity table
Description: as §1, §2, §3

HDAC1 = HDAC1 (Homo sapiens, UniProt Q13547); experiment: HDAC assay (fluorogenic substrate), HDAC1; format: biochemical; conditions: isoform selectivity table
Description: as §1, §2, §3

[2] = Pharmacokinetic evaluation in male CD1 mice; conditions: mouse, in vivo, po, 10 mg/kg (p.o.)

Sequence of HDAC1 (Q13547 whole entry, canonical isoform): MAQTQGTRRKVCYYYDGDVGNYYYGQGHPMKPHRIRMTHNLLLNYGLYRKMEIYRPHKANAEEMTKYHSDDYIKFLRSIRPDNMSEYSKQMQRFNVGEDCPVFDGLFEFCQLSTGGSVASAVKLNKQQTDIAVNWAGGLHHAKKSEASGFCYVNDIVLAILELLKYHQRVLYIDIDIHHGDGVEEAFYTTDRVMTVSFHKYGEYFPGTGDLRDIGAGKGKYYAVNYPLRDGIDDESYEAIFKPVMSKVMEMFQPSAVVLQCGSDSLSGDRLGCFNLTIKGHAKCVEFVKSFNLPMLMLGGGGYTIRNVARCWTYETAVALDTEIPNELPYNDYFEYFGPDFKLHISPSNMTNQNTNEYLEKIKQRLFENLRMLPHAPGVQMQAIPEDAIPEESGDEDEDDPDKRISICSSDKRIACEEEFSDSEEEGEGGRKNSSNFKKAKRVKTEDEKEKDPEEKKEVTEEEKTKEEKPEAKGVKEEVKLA
Sequence of HDAC2 (Q92769 whole entry, canonical isoform): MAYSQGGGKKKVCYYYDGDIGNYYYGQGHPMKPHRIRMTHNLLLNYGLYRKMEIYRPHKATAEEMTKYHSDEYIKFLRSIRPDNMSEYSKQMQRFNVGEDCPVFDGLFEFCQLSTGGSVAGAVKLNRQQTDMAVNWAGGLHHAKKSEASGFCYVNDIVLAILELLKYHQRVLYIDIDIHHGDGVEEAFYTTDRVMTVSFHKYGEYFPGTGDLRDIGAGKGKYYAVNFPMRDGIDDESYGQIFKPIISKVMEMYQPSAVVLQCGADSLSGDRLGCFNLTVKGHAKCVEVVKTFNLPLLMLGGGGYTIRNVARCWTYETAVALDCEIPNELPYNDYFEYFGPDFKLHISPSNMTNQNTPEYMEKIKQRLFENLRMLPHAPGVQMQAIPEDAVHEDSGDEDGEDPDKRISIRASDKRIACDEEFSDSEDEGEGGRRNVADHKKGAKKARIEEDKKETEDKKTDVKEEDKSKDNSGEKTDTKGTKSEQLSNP
Sequence of HDAC3 (O15379 whole entry, canonical isoform): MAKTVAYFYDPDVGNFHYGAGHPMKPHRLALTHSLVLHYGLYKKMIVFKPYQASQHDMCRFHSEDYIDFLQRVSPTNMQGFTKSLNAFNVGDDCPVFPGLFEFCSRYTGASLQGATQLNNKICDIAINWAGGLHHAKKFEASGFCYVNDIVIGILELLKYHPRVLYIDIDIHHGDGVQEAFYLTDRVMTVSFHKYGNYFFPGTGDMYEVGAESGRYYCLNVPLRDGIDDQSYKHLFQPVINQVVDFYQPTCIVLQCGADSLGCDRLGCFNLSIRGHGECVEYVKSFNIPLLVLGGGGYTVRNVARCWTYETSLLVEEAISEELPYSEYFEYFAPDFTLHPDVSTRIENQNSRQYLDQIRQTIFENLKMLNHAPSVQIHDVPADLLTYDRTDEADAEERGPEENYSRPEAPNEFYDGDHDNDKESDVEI
Sequence of HDAC3 (Q9Y618 395-489 partner limits assumed): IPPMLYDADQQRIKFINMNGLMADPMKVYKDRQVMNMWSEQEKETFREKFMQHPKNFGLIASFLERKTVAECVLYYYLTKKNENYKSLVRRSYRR

Q: With `CC(/C=C/C(=O)NO)=C\[C@@H](C)C(=O)c1ccc(N(C)C)cc1` [Trichostatin, reference compound] as the molecule, how does the IC50 [1] read?
A: The IC50 was 750 nM.

Q: With `FC(F)c1nnc(-c2cnc(Nc3cc(-c4ccccc4)c4nc[nH]c4c3)nc2)o1` [Example 1, N-(5-(5-(difluoromethyl)-1,3,4-oxadiazol-2-yl)pyrimidin-2-yl)-4-phenyl-1H-benzo[d]imidazol-6-amine] as the molecule, how does the inhibition at 10 µM (HDAC3) read?
A: Its inhibition at 10 µM is less than 10%.

Q: And the inhibition at 10 µM (HDAC6)?
A: The inhibition at 10 µM was greater than 90%.

Q: And the “% HDAC6 Inhibition @ 10 uM” value (HDAC6; 10 uM, isoform selectivity table)?
A: Its value is greater than 90%.

Q: And the inhibition at 10 µM (HDAC2)?
A: The inhibition at 10 µM was less than 10%.

Q: And the IC50 [1]?
A: Its IC50 is 2700 nM.

Q: And the inhibition at 10 µM (HDAC1)?
A: Its inhibition at 10 µM is less than 20%.

Q: And the AUC(0-t) [2]?
A: The AUC(0-t) was 5820 ng·h/mL.

Q: What about the Cmax [2] of the same molecule?
A: Its Cmax is 1450 ng/mL.

Q: And the half-life ([2]; read-out: T1/2 h (converted))?
A: Its half-life is 1.75 h.

Q: With `Fc1cc(I)ccc1-c1cc(Nc2ncc(-c3nnc(C(F)F)o3)cn2)cc2[nH]cnc12` [Example 42, N-(5-(5-(difluoromethyl)-1,3,4-oxadiazol-2-yl)pyrimidin-2-yl)-4-(2-fluoro-4-iodophenyl)-1H-benzo[d]imidazol-6-amine] as the molecule, how does the inhibition at 10 µM (HDAC6) read?
A: The inhibition at 10 µM was greater than 90%.

Q: Which inhibition at 10 µM (HDAC6) does the source give for `CN(C)c1nc2c(-c3ccccc3)cc(Nc3ncc(-c4nnc(C(F)F)o4)cn3)cc2[nH]1` [Example 6, N6-(5-(5-(difluoromethyl)-1,3,4-oxadiazol-2-yl)pyrimidin-2-yl)-N2,N2-dimethyl-4-phenyl-1H-benzo[d]imidazole-2,6-diamine] here?
A: The inhibition at 10 µM was greater than 80%.

Q: For `OCC(O)Cn1cnc2c(-c3ccccc3)cc(Nc3ncc(-c4nnc(C(F)F)o4)cn3)cc21` (centres unmarked) [Example 13, 3-(6-((5-(5-(difluoromethyl)-1,3,4-oxadiazol-2-yl)pyrimidin-2-yl)amino)-4-phenyl-1H-benzo[d]imidazol-1-yl)propane-1,2-diol], which inhibition at 10 µM (HDAC6) is on record?
A: The inhibition at 10 µM was greater than 90%.

Q: For `O=S(=O)(NCCO)c1cc(Nc2ncc(-c3nnc(C(F)F)o3)cn2)cc2[nH]cnc12` [Example 11, 6-((5-(5-(difluoromethyl)-1,3,4-oxadiazol-2-yl)pyrimidin-2-yl)amino)-N-(2-hydroxyethyl)-1H-benzo[d]imidazole-4-sulfonamide], which inhibition at 10 µM (HDAC6) is on record?
A: Its inhibition at 10 µM is greater than 90%.

Q: For `CN(C)C(=O)c1cc(Nc2ncc(-c3nnc(C(F)F)o3)cn2)cc2[nH]cnc12` [Example 8, 6-((5-(5-(difluoromethyl)-1,3,4-oxadiazol-2-yl)pyrimidin-2-yl)amino)-N,N-dimethyl-1H-benzo[d]imidazole-4-carboxamide], which inhibition at 10 µM (HDAC6) is on record?
A: Its inhibition at 10 µM is greater than 80%.

Q: For `OCCn1c(C(F)(F)F)nc2c(-c3ccccc3)cc(Nc3ncc(-c4nnc(C(F)F)o4)cn3)cc21` [Example 41, 2-(6-((5-(5-(difluoromethyl)-1,3,4-oxadiazol-2-yl)pyrimidin-2-yl)amino)-4-phenyl-2-(trifluoromethyl)-1H-benzo[d]imidazol-1-yl)ethan-1-ol], which inhibition at 10 µM (HDAC6) is on record?
A: Its inhibition at 10 µM is greater than 90%.

Q: With `Fc1ccc(-c2cc(Nc3ncc(-c4nnc(C(F)F)o4)cn3)cc3[nH]cnc23)c(F)c1` [Example 9, N-(5-(5-(difluoromethyl)-1,3,4-oxadiazol-2-yl)pyrimidin-2-yl)-4-(2,4-difluorophenyl)-1H-benzo[d]imidazol-6-amine] as the molecule, how does the inhibition at 10 µM (HDAC6) read?
A: Its inhibition at 10 µM is greater than 90%.
